Patent publication US8865967B2 (priority 2010, dated 2014)

Tests used:
Format in all cases: cell-based
[1] = system: Colletotrichum graminicola (CGR; isolate Carroll-IA-99); conditions: for IC50 (ppm) High Salt Cgr: high salt: 1/2x liquid media plus 1 mM calcium chloride, 50 mM potassium chloride, Table 1; for IC50 (ppm) Low Salt Cgr: low salt: 1/8x Czapek-Dox broth plus 0.25 mM calcium chloride, 12.5 mM potassium chloride; for Antifungal activity (IC50 in ppm) against C. graminicola under high salt conditions: Table 2
[2] = system: Fusarium graminearum (FGR; isolate 73B ISU); conditions: for IC50 (ppm) Low Salt Fgr: low salt: 1/8x potato dextrose broth plus 0.25 mM calcium chloride, 12.5 mM potassium chloride; for IC50 (ppm) High Salt Fgr: high salt: 1/2x liquid media plus 1 mM calcium chloride, 50 mM potassium chloride
[3] = system: Fusarium verticillioides (FVE)
Diplodia maydis (DMA) = conditions: for IC50 (ppm) High Salt Dma: high salt: 1/2x liquid media plus 1 mM calcium chloride, 50 mM potassium chloride; for IC50 (ppm) Low Salt Dma: low salt: 1/8x potato dextrose broth plus 0.25 mM calcium chloride, 12.5 mM potassium chloride

| Substance | IC50 (ppm) High Salt Cgr [1] | IC50 (ppm) Low Salt Cgr [1] | IC50 (ppm) Low Salt Fgr [2] | IC50 (ppm) High Salt Fgr [2] | IC50 (ppm) High Salt Fve [3] | IC50 (ppm) High Salt Dma (Diplodia maydis (DMA)) | IC50 (ppm) Low Salt Fve [3] | IC50 (ppm) Low Salt Dma (Diplodia maydis (DMA)) | Antifungal activity (IC50 in ppm) against C. graminicola under high salt conditions [1] |
| --- | --- | --- | --- | --- | --- | --- | --- | --- | --- |
| Pp-PDF1-1C-6D3: Pp-PDF1 variant from first shuffling round (RVCEKPSKFFKGLCVRDRDCAVACKKEGLASGFCQSKGFFNSVCVCKKPC; Synthetic sequence obtained from DNA shuffling of a plant sequence.) | 12 ppm | 0.6 ppm | 4.5 ppm | – | – | – | – | – | – |
| Pp-PDF1-4CB-6E6: Pp-PDF1 variant from fourth shuffling round (RVCTKPSKFYKGLCISDRDCTNACRKEGLPIGFCKSKGFFNSVCVCRKPC; Synthetic sequence obtained from DNA shuffling of a plant sequence.) | 0.25 ppm | 0.25 ppm | – | 150 ppm | >200 ppm | 100 ppm | – | – | – |
| PP-PDF1-2CF-2D8: Pp-PDF1 variant from second shuffling round (RVCTKPSKFYKGLCVSDRDCTNACRKEGLPTGFCQSKGFFNSVCVCKKPC; Synthetic sequence obtained from DNA shuffling of a plant sequence.) | 0.6 ppm | 0.3 ppm | 15 ppm | 100 ppm | 200 ppm | 50 ppm | 30 ppm | 15 ppm | – |
| Pp-PDF1-2CA-1H4: Pp-PDF1 variant from second shuffling round (RVCRKPSKFFKGLCLSDRDCTNACRKEGLATGECQSKGFFNSVCVCEKPC; Synthetic sequence obtained from DNA shuffling of a plant sequence.) | 1 ppm | – | – | – | – | – | – | – | – |
| Pp-PDF1-4CB-6E9: Pp-PDF1 variant from fourth shuffling round (RVCTKPSKFFKGLCISDRQCTNACRKEGLPTGECQPKGFFNSVCVCRKPC; Synthetic sequence obtained from DNA shuffling of a plant sequence.) | 0.25 ppm | 0.4 ppm | – | 150 ppm | >200 ppm | 100 ppm | – | – | – |
| Pp-PDF1: Picramnia pentandra plant defensin, parent polypeptide used in the DNA shuffling (KVCTKPSKFFKGLCGADRDCTVACKKEGLATGFCQKKGFFNFVCVCRKPC; listed as Picramnia pentandra) [reference compound] | 15 ppm | 3 ppm | 2 ppm | 5 ppm | 50 ppm | 50 ppm | 2 ppm | 7.5 ppm | 15 ppm |
| Pp-PDF1 (4B11): Pp-PDF1 variant identified by DNA shuffling (RVCTKPSKFFKGMCVSDNNCTHACRKEGLPTGFCQSKGFFNSVCVCKKPC; Synthetic sequence obtained from DNA shuffling of a plant sequence.) | 0.8 ppm | – | – | >200 ppm | >200 ppm | 12.5 ppm | – | – | 1 ppm |
| Pp-PDF1-2CE-4A7: Pp-PDF1 variant from second shuffling round (RVCTKPSKFFKGLCVSDNNCTHACRTEGLPIGFCQSKGFFNSVCVCKKPC; Synthetic sequence obtained from DNA shuffling of a plant sequence.) | 0.8 ppm | – | – | 5.6 ppm | 200 ppm | 25 ppm | – | – | – |
| Pp-PDF1-3CA-1B2: Pp-PDF1 variant from third shuffling round (RVCTKPSKFYRGLCVSDRDCTHACRKEGLPIGECKSKGFFNSVCVCKKPC; Synthetic sequence obtained from DNA shuffling of a plant sequence.) | 0.8 ppm | 2 ppm | 15 ppm | ^~100 ppm | 200 ppm | 50 ppm | 30 ppm | 15 ppm | – |
| Pp-PDF1-3CA-1A2: Pp-PDF1 variant from third shuffling round (RVCTKPSKFYRGLCVSDRDCTHACRKEGLPTGFCQSKGFFNSVCVCKKPC; Synthetic sequence obtained from DNA shuffling of a plant sequence.) | 0.6 ppm | 3 ppm | 15 ppm | ^~100 ppm | 200 ppm | 50 ppm | 30 ppm | 15 ppm | – |
| Pp-PDF1-3CA-1 E6: Pp-PDF1 variant from third shuffling round (RVCTKPSKFYRGLCVSDRDCTNACRKEGLPTGFCQSKGFFNSVCVCKKPC; Synthetic sequence obtained from DNA shuffling of a plant sequence.) | 0.6 ppm | – | – | ^~100 ppm | – | – | – | – | – |
| Pp-PDF1-2CA-1A6: Pp-PDF1 variant from second shuffling round (RVCKKPSKFFKGLCLSDRDCTNACRKEGLATGECQSKGFFNSVCVCRKPC; Synthetic sequence obtained from DNA shuffling of a plant sequence.) | 1 ppm | – | – | – | – | – | – | – | – |
| Pp-PDF1-4CB-12G9: Pp-PDF1 variant from fourth shuffling round (RVCTKPSKFFRGLCVSDRQCTNACRKEGLPIGECQSKGFFNSVCVCRKPC; Synthetic sequence obtained from DNA shuffling of a plant sequence.) | 0.25 ppm | 0.25 ppm | – | 50 ppm | >200 ppm | 25 ppm | – | – | – |
| Pp-PDF1 (C2B5): Pp-PDF1 variant identified by DNA shuffling (RVCEKPSKFFKGMCVSDRNCTNACRKEGLPTGFCQSKGFFNSVCVCKKPC; Synthetic sequence obtained from DNA shuffling of a plant sequence.) | – | – | – | – | – | – | – | – | 0.8 ppm |
| PP-PDF1-1F-12H3: Pp-PDF1 variant from first shuffling round (RVCTKPSKFFKGLCVSDDDCAHACRKEGLATGKCQKKGFFNRVCVCKKPC; Synthetic sequence obtained from DNA shuffling of a plant sequence.) | 10 ppm | – | – | 3 ppm | >200 ppm | 200 ppm | – | – | – |
| Pp-PDF1-3CA-1A7: Pp-PDF1 variant from third shuffling round (RVCTKPSKFFRGLCVSDRDCTNACRKEGLPIGFCQSKGFFNSVCVCKKPC; Synthetic sequence obtained from DNA shuffling of a plant sequence.) | 0.6 ppm | 0.8 ppm | 15 ppm | ^~100 ppm | 200 ppm | 25 ppm | 30 ppm | 10 ppm | – |
| PP-PDF1-2CF-10F3: Pp-PDF1 variant from second shuffling round (RVCTKPSKFFRGLCVSDRNCTNACRKEGLPTGECKSKGFFNSVCVCKKPC; Synthetic sequence obtained from DNA shuffling of a plant sequence.) | 0.6 ppm | 1.5 ppm | 15 ppm | 100 ppm | 200 ppm | 25 ppm | 30 ppm | 15 ppm | – |
| PP-PDF1-1F-7H6: Pp-PDF1 variant from first shuffling round (RVCEKPSKFFKGMCVRDRDCTVACKKEGLATGFCQKKGFFNFVCVCKKPC; Synthetic sequence obtained from DNA shuffling of a plant sequence.) | 10 ppm | – | – | 3 ppm | >200 ppm | 200 ppm | – | – | – |
| Pp-PDF1-1C-7C4: Pp-PDF1 variant from first shuffling round (RVCTKPSKFFKGMCVSDNDCTHACRKEGLATGFCQSKGFFNSVCVCTKPC; Synthetic sequence obtained from DNA shuffling of a plant sequence.) | 3 ppm | 0.14 ppm | 4.7 ppm | 20 ppm | >200 ppm | 25 ppm | – | – | 5 ppm |
| Pp-PDF1-1F-1C5: Pp-PDF1 variant from first shuffling round (KVCTKPSKFFKGMCVRDRDCTNACRKEGLASGFCQKKGFFNFVCVCRKPC; Synthetic sequence obtained from DNA shuffling of a plant sequence.) | 10 ppm | – | – | 1.5 ppm | >200 ppm | 50 ppm | – | – | – |
| Pp-PDF1 2CA 5H4: Pp-PDF1 variant from second shuffling round (RVCKKPSKFFKGLCLSDRDCTNACRKEGLATGECQSKGFFNSVCVCEKPC; Synthetic sequence obtained from DNA shuffling of a plant sequence.) | 1 ppm | – | – | – | – | – | – | – | – |
